Test [1] has as its target Human GPR35 (Homo sapiens, UniProt Q9HC97). Briefly: Beta-Arrestin Assay (Tango U2OS cells, LiveBLAzer-FRET B/G). In kind it is cell-based. The settings on record: Human GPR35 expressing Tango U2OS cells, 5 hours treatment. How it is done:
Human GPR35 expressing Tango U2OS cells were plated in 384-well format in clear bottom plates at a cell density of 10,000 cells/well and allowed to grow overnight. The next day, cells were treated with serially diluted test compounds for 5 hours. LiveBLAzer-FRET B/G (CCF4-AM) detection reagents were then added and cells were allowed to incubate for 2 hours before reading plates on a BioTek Cytation 5 plate reader. Zaprinast was used as a positive control for dose-response curves. In order to determine EC50 values, data were fit to a four-parameter dose-response curve.

For test [2], the target named is Human GPR35 (Homo sapiens, UniProt Q9HC97, S294R). Briefly: Alternative Beta-Arrestin Assay (JumpIn 294R Tango U2OS cells, LiveBLAzer-FRET B/G). In kind it is cell-based. The note with it: for EC50: Human GPR35 expressing JumpIn 294R Tango U2OS cells, 5 hours treatment. The gist of the method:
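Beta-arrestin recruitment measured as FRET ratio change using CCF4-AM loading for 2 h, following 5-hour compound treatment of GPR35 (S294R) JumpIn Tango U2OS cells. Zaprinast served as positive control; EC50 values from four-parameter dose-response fits.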

SMILES strings stand for the structures.

Chain of Human GPR35 (Homo sapiens, UniProt Q9HC97, S294R) (Q9HC97 whole entry S294R): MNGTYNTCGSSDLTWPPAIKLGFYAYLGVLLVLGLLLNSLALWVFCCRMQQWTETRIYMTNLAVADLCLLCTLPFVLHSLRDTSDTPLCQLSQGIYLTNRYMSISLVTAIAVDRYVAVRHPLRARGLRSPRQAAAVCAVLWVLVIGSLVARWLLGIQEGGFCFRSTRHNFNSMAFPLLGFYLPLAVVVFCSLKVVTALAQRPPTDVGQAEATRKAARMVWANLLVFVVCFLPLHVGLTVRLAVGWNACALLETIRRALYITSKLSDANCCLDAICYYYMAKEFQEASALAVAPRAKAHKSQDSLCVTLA
Chain of Human GPR35 (Homo sapiens, UniProt Q9HC97) (Q9HC97 whole entry): as the sequence (Q9HC97 whole entry S294R) above, with R294S counted along it

Consider `CCOc1cc(-c2cccc(C(=O)O)c2C)ccc1-c1nc2[nH]nnc2c(=O)[nH]1` [Compound 154, 3′-ethoxy-2-methyl-4′-(7-oxo-6,7-dihydro-3H-[1,2,3]triazolo[4,5-d]pyrimidin-5-yl)-[1,1′-biphenyl]-3-carboxylic acid], for which the EC50 at Human GPR35 [1] and on Human GPR35 [2] was at most 10 µM in each case.

With `CCOc1cc(-c2ccc(C)c(C(=O)O)c2)ccc1-c1nc2[nH]nnc2c(=O)[nH]1` [Compound 155, 3′-ethoxy-4-methyl-4′-(7-oxo-6,7-dihydro-3H-[1,2,3]triazolo[4,5-d]pyrimidin-5-yl)-[1,1′-biphenyl]-3-carboxylic acid], the EC50 at Human GPR35 [1] and on Human GPR35 [2] was at most 10 µM in each case.

On to `CCOc1cc(NCCC(=O)O)ccc1-c1nc2[nH]nnc2c(=O)[nH]1` [Compound 168, 3-((3-ethoxy-4-(7-oxo-6,7-dihydro-3H-[1,2,3]triazolo[4,5-d]pyrimidin-5-yl)phenyl)amino)propanoic acid], for which the EC50 at Human GPR35 [1] and on Human GPR35 [2] was at most 10 µM each time.

Regarding `CCOc1cc(-c2ccc(C(=O)OC)nc2)ccc1-c1nc2[nH]nnc2c(=O)[nH]1` [Compound 124, Methyl 5-(3-ethoxy-4-(7-oxo-6,7-dihydro-3H-[1,2,3]triazolo[4,5-d]pyrimidin-5-yl)phenyl)picolinate], the EC50 on Human GPR35 [1] and at Human GPR35 [2] was at most 10 µM each time.

In the case of `CCOc1cc(C2CC2)ccc1-c1nc2[nH]nnc2c(=O)[nH]1` [Compound 130, 5-(4-cyclopropyl-2-ethoxyphenyl)-3,6-dihydro-7H-[1,2,3]triazolo[4,5-d]pyrimidin-7-one], the EC50 on Human GPR35 [1] and on Human GPR35 [2] was at most 10 µM in each case.

`CCOc1cc(C(=O)Nc2ccccc2)ccc1-c1nc2[nH]nnc2c(=O)[nH]1` [Compound 134, 3-Ethoxy-4-(7-oxo-6,7-dihydro-3H-[1,2,3]triazolo[4,5-d]pyrimidin-5-yl)-N-phenylbenzamide]: the EC50 on Human GPR35 [1] and at Human GPR35 [2] was at most 10 µM each time.

As for `O=C(O)Cc1ccc(-c2nc3[nH]nnc3c(=O)[nH]2)cc1` [Compound 149, 2-(4-(7-oxo-6,7-dihydro-3H-[1,2,3]triazolo[4,5-d]pyrimidin-5-yl)phenyl)acetic acid], the EC50 at Human GPR35 [1] and on Human GPR35 [2] was at most 10 µM each time.

Consider `CCOc1cc(-c2ccc(C(=O)O)cc2)ccc1-c1nc2[nH]nnc2c(=O)[nH]1` [Compound 111, 3′-Ethoxy-4′-(7-oxo-6,7-dihydro-3H-[1,2,3]triazolo[4,5-d]pyrimidin-5-yl)-[1,1′-biphenyl]-4-carboxylic acid], for which the EC50 on Human GPR35 [1] and at Human GPR35 [2] was at most 10 µM in each case.

On to `O=c1[nH]c(-c2ccc(-c3ccccc3)cc2)nc2[nH]nnc12` [Compound 129, 5-([1,1′-biphenyl]-4-yl)-3,6-dihydro-7H-[1,2,3]triazolo[4,5-d]pyrimidin-7-one], for which the concentration for a half-maximal effect (EC50) (as a rule, the concentration needed to bring the measured effect to its halfway point) on Human GPR35 [1] is at most 10 µM; at Human GPR35 [2], 10 to 50 µM.

As to `CCOc1cc(C(=O)N2CCC[C@@H]2C(=O)O)ccc1-c1nc2[nH]nnc2c(=O)[nH]1` [Compound 159, (3-ethoxy-4-(7-oxo-6,7-dihydro-3H-[1,2,3]triazolo[4,5-d]pyrimidin-5-yl)benzoyl)-D-proline], the EC50 on Human GPR35 [1] was over 10 µM; on Human GPR35 [2], 10 to 50 µM.

As for `CCOc1cc(-c2cccnc2)ccc1-c1nc2[nH]nnc2c(=O)[nH]1` [Compound 102, 5-(2-Ethoxy-4-(pyridin-3-yl)phenyl)-3,6-dihydro-7H-[1,2,3]triazolo[4,5-d]pyrimidin-7-one], the EC50 on Human GPR35 [1] and at Human GPR35 [2] was at most 10 µM in each case.

On to `CCOc1cc(-c2ccccc2C(=O)OC)ccc1-c1nc2[nH]nnc2c(=O)[nH]1` [Compound 106, Methyl 3′-ethoxy-4′-(7-oxo-6,7-dihydro-3H-[1,2,3]triazolo[4,5-d]pyrimidin-5-yl)-[1,1′-biphenyl]-2-carboxylate], for which the EC50 at Human GPR35 [1] and at Human GPR35 [2] was at most 10 µM in each case.

For the molecule `CCOc1cc(C(=O)NC2CCCC2)ccc1-c1nc2nn[nH]c2c(=O)[nH]1` [Compound 136, N-Cyclopentyl-3-ethoxy-4-(7-oxo-6,7-dihydro-3H-[1,2,3]triazolo[4,5-d]pyrimidin-5-yl)benzamide], the EC50 is at most 10 µM on Human GPR35 [1] and 10 to 50 µM at Human GPR35 [2].

With `CCOc1cc(-c2nnn[nH]2)ccc1-c1nc2[nH]nnc2c(=O)[nH]1` [Compound 143, 5-(2-ethoxy-4-(1H-tetrazol-5-yl)phenyl)-3,6-dihydro-7H-[1,2,3]triazolo[4,5-d]pyrimidin-7-one], the EC50 at Human GPR35 [1] and at Human GPR35 [2] was at most 10 µM each time.

Turning to `CCOc1cc(N2CC[C@@H](C(=O)O)C2)ccc1-c1nc2[nH]nnc2c(=O)[nH]1` [Compound 167, (R)-1-(3-ethoxy-4-(7-oxo-6,7-dihydro-3H-[1,2,3]triazolo[4,5-d]pyrimidin-5-yl)phenyl)pyrrolidine-3-carboxylic acid], the EC50 at Human GPR35 [1] and on Human GPR35 [2] was at most 10 µM in each case.

On to `CCOc1cc(N2CCC[C@H]2C(=O)O)ccc1-c1nc2[nH]nnc2c(=O)[nH]1` [Compound 162, (3-ethoxy-4-(7-oxo-6,7-dihydro-3H-[1,2,3]triazolo[4,5-d]pyrimidin-5-yl)phenyl)-L-proline], for which the EC50 was at most 10 µM at Human GPR35 [1] and 10 to 50 µM on Human GPR35 [2].

In the case of `CCOc1cc(C(=O)N2CCCCC2C(=O)O)ccc1-c1nc2[nH]nnc2c(=O)[nH]1` (stereo not shown) [Compound 171, 1-(3-ethoxy-4-(7-oxo-6,7-dihydro-3H-[1,2,3]triazolo[4,5-d]pyrimidin-5-yl)benzoyl)piperidine-2-carboxylic acid], the results for the EC50 at Human GPR35 [1] and on Human GPR35 [2] were over 10 µM and 10 to 50 µM, respectively.

In the case of `CCOc1cc(-c2cccc(C(N)=O)c2)ccc1-c1nc2[nH]nnc2c(=O)[nH]1` [Compound 156, 3′-ethoxy-4′-(7-oxo-6,7-dihydro-3H-[1,2,3]triazolo[4,5-d]pyrimidin-5-yl)-[1,1′-biphenyl]-3-carboxamide], the EC50 on Human GPR35 [1] and on Human GPR35 [2] was at most 10 µM each time.

Regarding `CCOc1cc(-c2ccc(OC)c(C(=O)O)c2)ccc1-c1nc2[nH]nnc2c(=O)[nH]1` [Compound 182, 3′-ethoxy-4-methoxy-4′-(7-oxo-6,7-dihydro-3H-[1,2,3]triazolo[4,5-d]pyrimidin-5-yl)-[1,1′-biphenyl]-3-carboxylic acid], the EC50 on Human GPR35 [1] and at Human GPR35 [2] was at most 10 µM in each case.

`CCOc1cc(-c2ccccc2CC(=O)O)ccc1-c1nc2[nH]nnc2c(=O)[nH]1` [Compound 119, 2-(3′-Ethoxy-4′-(7-oxo-6,7-dihydro-3H-[1,2,3]triazolo[4,5-d]pyrimidin-5-yl)-[1,1′-biphenyl]-2-yl)acetic acid]: the 50% effective concentration (EC50) at Human GPR35 [1] and on Human GPR35 [2] was at most 10 µM throughout.

Turning to `CCOc1cc(B(O)O)ccc1-c1nc2[nH]nnc2c(=O)[nH]1` [Compound 151, (3-ethoxy-4-(7-oxo-6,7-dihydro-3H-[1,2,3]triazolo[4,5-d]pyrimidin-5-yl)phenyl)boronic acid], the EC50 at Human GPR35 [1] and on Human GPR35 [2] was at most 10 µM each time.

At Human GPR35 [2], `O=C(O)c1cc(O)cc(-c2ccc(-c3nc4[nH]nnc4c(=O)[nH]3)c(OC3CCCC3)c2)c1` [Compound 199, 3′-(Cyclopentyloxy)-5-hydroxy-4′-(7-oxo-6,7-dihydro-3H-[1,2,3]triazolo[4,5-d]pyrimidin-5-yl)-[1,1′-biphenyl]-3-carboxylic acid] showed an EC50 of at most 10 µM.

At Human GPR35 [2], `O=C(O)c1cc(-c2ccc(-c3nc4[nH]nnc4c(=O)[nH]3)c(OC3CCCC3)c2)ccc1O` [Compound 200, 3′-(Cyclopentyloxy)-4-hydroxy-4′-(7-oxo-6,7-dihydro-3H-[1,2,3]triazolo[4,5-d]pyrimidin-5-yl)-[1,1′-biphenyl]-3-carboxylic acid] registered an EC50 of at most 10 µM.

For the molecule `CCOC(=O)Cc1cccc(-c2ccc(-c3nc4[nH]nnc4c(=O)[nH]3)c(OCC)c2)c1` [Compound 294, ethyl 2-(3′-ethoxy-4′-(7-oxo-6,7-dihydro-3H-[1,2,3]triazolo[4,5-d]pyrimidin-5-yl)-[1,1′-biphenyl]-3-yl)acetate], at Human GPR35 [2], the EC50 was at most 10 µM.

With `CCOc1cc(-c2cc(O)cc(C(=O)O)c2)ccc1-c1nc2[nH]nnc2c(=O)[nH]1` [Compound 198, 3′-Ethoxy-5-hydroxy-4′-(7-oxo-6,7-dihydro-3H-[1,2,3]triazolo[4,5-d]pyrimidin-5-yl)-[1,1′-biphenyl]-3-carboxylic acid], the EC50 on Human GPR35 [2] is at most 10 µM.

Take `O=C(O)c1ccc(-c2ccc(-c3nc4[nH]nnc4c(=O)[nH]3)c(OCCN3CCCC3)c2)cc1` [Compound 227, 4′-(7-Oxo-6,7-dihydro-3H-[1,2,3]triazolo[4,5-d]pyrimidin-5-yl)-3′-(2-(pyrrolidin-1-yl)ethoxy)-[1,1′-biphenyl]-4-carboxylic acid]: the “% inhibition at 50 μM” value on Human GPR35 [2] (at 50 μM, Table 2) was found to be 66% inhibition at.

As for `CCOc1cc(-c2cccc(NC(C)(C)C(=O)O)c2)ccc1-c1nc2[nH]nnc2c(=O)[nH]1` [Compound 224, 2-((3′-Ethoxy-4′-(7-oxo-6,7-dihydro-3H-[1,2,3]triazolo[4,5-d]pyrimidin-5-yl)-[1,1′-biphenyl]-3-yl)amino)-2-methylpropanoic acid], at Human GPR35 [2], the EC50 is at most 10 µM.

Consider `CCOc1cc(-c2cccc(CC(CC)C(=O)O)c2)ccc1-c1nc2[nH]nnc2c(=O)[nH]1` (single isomer, unassigned) [Compound 240, 2-((3′-ethoxy-4′-(7-oxo-6,7-dihydro-3H-[1,2,3]triazolo[4,5-d]pyrimidin-5-yl)-[1,1′-biphenyl]-3-yl)methyl)butanoic acid], for which the EC50 on Human GPR35 [2] was at most 10 µM.

For the origin of these results see US11053251B2, “GPR35 modulators” (Prometheus Biosciences, Inc., priority 2019, dated 2021).
